ChEMBL document CHEMBL4840351 (J Med Chem, 2021)
Calls of active or inactive are those of the source. The rule behind the calls is not given here.

Assays:
[1] = Drug concentration in ICR mouse plasma at 15 mg/kg, po after 2 hrs; assay type: ADME, organism-based
Pfeiffer = assay: Antiproliferative activity against human Pfeiffer cells assessed as reduction in cell viability incubated for 72 hrs by celltiter-glo assay
[2] = target: T1, Tyrosine-protein kinase ITK/TSK (Homo sapiens, UniProt Q08881); assay: Inhibition of full-length N-terminal GST-tagged ITK (2 to 620 residues) (unknown origin) expressed in Sf21 insect cells using NH2-ETVYSEVRK-biotin as substrate preincubated for 1 hr followed by ATP addition and measured after 2 hrs by ELISA
T1 sequence (Q08881 whole entry): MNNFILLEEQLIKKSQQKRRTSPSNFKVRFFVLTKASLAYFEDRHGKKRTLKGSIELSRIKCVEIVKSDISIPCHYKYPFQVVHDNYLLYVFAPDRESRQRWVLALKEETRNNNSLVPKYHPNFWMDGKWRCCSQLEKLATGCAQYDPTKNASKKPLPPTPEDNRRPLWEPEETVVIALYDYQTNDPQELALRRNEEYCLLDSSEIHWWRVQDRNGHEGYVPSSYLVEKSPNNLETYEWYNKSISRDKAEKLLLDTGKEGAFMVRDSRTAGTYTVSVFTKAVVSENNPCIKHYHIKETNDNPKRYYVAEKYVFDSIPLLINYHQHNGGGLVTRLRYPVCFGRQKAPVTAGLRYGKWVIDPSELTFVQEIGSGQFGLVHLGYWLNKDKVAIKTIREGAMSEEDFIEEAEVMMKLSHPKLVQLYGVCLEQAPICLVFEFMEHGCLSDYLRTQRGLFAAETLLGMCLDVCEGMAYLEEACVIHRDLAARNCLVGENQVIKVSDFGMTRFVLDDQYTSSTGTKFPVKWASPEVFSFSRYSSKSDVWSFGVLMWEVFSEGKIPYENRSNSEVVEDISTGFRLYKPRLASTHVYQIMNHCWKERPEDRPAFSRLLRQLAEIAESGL

TMD8 [3] = assay: Induction of cell cycle arrest in human TMD8 cells assessed as accumulation of cells at S phase at 300 nM incubated for 48 hrs by PI staining based flow cytometric analysis (reference value: 37.42 %); assay type: functional
[4] = Toxicity in SFP CD-1 mouse assessed as change in temperature at 10 to 1280 mg/kg, po administered for 7 days; assay type: organism-based; conditions: in vivo, 168 h, dose 10-1280 mg/kg, time 7 day
TMD8 [5] = assay: Induction of apoptosis in human TMD8 cells at 30 nM incubated for 72 hrs by Annexin V-FITC/PI staining based flow cytometric analysis (reference value: 13.4 %); assay type: functional
[6] = target: Tyrosine-protein kinase Fyn (Homo sapiens, UniProt P06241); assay: Inhibition of FYN (unknown origin)
Chain of Tyrosine-protein kinase Fyn (P06241 whole entry): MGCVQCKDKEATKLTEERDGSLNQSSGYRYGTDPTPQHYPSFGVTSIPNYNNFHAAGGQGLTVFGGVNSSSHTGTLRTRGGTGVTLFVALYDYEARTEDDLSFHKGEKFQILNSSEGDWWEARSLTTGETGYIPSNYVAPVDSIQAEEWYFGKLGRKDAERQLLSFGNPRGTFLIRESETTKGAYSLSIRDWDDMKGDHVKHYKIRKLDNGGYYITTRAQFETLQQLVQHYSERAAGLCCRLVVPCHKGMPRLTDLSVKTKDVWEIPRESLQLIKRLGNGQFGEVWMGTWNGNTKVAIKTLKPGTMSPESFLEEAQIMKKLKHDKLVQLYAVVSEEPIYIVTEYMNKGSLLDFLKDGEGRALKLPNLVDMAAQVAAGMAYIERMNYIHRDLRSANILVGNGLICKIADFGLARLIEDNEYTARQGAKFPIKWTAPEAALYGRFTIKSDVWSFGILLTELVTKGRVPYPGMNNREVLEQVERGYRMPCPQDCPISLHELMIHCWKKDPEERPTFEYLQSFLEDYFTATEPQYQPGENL

[7] = Receptor occupancy at BTK in PBMC of ICR mouse at 15 mg/kg, po after 1 hr by ELISA; assay type: functional
Cytochrome P450 2D6 = Cytochrome P450 2D6 (Homo sapiens, UniProt P10635); assay: Inhibition of CYP2D6 in human liver microsomes using bufuralol as substrate incubated for 10 mins in presence of NADPH by LC-MS/MS analysis; assay type: ADME
Chain of Cytochrome P450 2D6 (P10635 whole entry): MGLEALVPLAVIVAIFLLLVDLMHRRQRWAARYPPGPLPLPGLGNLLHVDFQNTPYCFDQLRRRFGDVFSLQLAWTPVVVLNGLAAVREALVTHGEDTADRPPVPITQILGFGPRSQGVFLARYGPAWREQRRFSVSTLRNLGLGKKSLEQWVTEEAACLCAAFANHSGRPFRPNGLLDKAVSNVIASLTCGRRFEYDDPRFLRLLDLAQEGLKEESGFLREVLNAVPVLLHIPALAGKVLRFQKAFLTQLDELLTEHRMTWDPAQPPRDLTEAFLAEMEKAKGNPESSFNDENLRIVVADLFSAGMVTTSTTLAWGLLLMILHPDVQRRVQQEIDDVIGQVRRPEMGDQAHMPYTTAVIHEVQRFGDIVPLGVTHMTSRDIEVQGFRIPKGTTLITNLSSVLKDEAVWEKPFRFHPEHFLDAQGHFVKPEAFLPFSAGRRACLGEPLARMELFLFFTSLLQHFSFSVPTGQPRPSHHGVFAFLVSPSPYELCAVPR

[8] = Toxicity in SFP CD-1 mouse assessed as pathological change in visceral organs at 10 to 1280 mg/kg, po administered for 7 days by H and E staining based assay; assay type: organism-based; conditions: in vivo, 168 h, dose 10-1280 mg/kg, time 7 day
SU-DHL-2 = assay: Antiproliferative activity against human SUDHL2 cells assessed as reduction in cell viability incubated for 72 hrs by celltiter-glo assay; conditions: SU-DHL-2, 72 h
[9] = Toxicity in SFP CD-1 mouse assessed as change in animal color at 10 to 1280 mg/kg, po administered for 7 days; assay type: organism-based; conditions: in vivo, 168 h, dose 10-1280 mg/kg, time 7 day
TMD8 [10] = assay: Antitumor activity against human TMD8 cells xenografted in CB-17 SCID nude mouse assessed as tumor growth inhibition at 7.5 mg/kg, po bid administered for 21 days; assay type: functional; conditions: 504 h, time 21 day, read-out: TGI
Raji = assay: Antiproliferative activity against human Raji cells assessed as reduction in cell viability incubated for 72 hrs by celltiter-glo assay
[11] = target: Tyrosine-protein kinase Tec (Homo sapiens) (UniProt P42680); assay: Inhibition of TEC (unknown origin) at 1 uM relative to control
Chain of Tyrosine-protein kinase Tec (Homo sapiens) (P42680 whole entry): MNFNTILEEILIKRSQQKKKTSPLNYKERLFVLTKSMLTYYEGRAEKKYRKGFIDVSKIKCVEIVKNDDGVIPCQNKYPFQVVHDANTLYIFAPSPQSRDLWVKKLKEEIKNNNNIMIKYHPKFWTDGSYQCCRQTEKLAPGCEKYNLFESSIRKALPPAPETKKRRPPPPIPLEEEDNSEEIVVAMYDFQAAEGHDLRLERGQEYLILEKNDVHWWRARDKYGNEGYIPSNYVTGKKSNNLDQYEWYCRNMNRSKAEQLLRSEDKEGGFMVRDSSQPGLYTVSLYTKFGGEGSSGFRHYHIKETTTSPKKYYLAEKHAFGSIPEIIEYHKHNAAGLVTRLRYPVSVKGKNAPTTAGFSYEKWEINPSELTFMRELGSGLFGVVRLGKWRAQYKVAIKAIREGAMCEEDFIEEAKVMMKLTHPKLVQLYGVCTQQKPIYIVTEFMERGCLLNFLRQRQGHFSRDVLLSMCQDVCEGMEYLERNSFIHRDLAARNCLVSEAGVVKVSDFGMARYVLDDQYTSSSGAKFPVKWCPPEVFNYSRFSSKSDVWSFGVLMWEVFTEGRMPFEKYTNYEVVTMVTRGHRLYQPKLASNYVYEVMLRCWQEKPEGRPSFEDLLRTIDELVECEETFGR

TMD8 [12] = assay: Antiproliferative activity against human TMD8 cells assessed as reduction in cell viability incubated for 72 hrs by celltiter-glo assay; conditions: TMD8, 72 h
[13] = Half life in Sprague-Dawley rat at 5 mg/kg, iv measured upto 24 hrs by LC/MS/MS analysis; assay type: ADME, organism-based; conditions: in vivo
TMD8 [14] = assay: Induction of apoptosis in human TMD8 cells at 300 nM incubated for 72 hrs by Annexin V-FITC/PI staining based flow cytometric analysis (reference value: 13.4 %); assay type: functional
TMD8 [15] = assay: Induction of cell cycle arrest in human TMD8 cells assessed as accumulation of cells at G2 phase at 3 nM incubated for 48 hrs by PI staining based flow cytometric analysis (reference value: 4.92 %); assay type: functional
Cytochrome P450 3A4 = Cytochrome P450 3A4 (Homo sapiens, UniProt P08684); assay: Inhibition of CYP3A4T in human liver microsomes using midazolam as substrate incubated for 10 mins in presence of NADPH by LC-MS/MS analysis; assay type: ADME
Chain of Cytochrome P450 3A4 (P08684 whole entry): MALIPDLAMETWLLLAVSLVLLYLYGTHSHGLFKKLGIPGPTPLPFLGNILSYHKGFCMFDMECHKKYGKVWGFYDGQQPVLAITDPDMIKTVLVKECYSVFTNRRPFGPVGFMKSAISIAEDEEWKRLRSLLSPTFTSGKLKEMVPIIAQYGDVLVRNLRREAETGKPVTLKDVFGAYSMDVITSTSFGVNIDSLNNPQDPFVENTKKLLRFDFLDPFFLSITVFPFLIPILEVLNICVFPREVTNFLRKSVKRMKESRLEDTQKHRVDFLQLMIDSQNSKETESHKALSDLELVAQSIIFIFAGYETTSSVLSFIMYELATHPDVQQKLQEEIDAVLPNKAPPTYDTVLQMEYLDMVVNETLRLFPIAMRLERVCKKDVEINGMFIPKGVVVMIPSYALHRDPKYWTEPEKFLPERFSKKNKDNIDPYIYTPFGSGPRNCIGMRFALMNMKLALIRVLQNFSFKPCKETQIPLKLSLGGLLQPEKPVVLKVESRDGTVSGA

MOLM-13 = assay: Antiproliferative activity against human MOLM-13 cells assessed as reduction in cell viability incubated for 72 hrs by celltiter-glo assay; conditions: MOLM-13, 72 h
[16] = AUC(0 to 8 hrs) in CB-17 SCID mouse xenografted with human TMD8 cells at 7.5 mg/kg, po bid administered for 21 days; assay type: ADME, organism-based; design: route oral, time 21 day, dose 7.5 mg/kg; conditions: in vivo
[17] = target: Tyrosine-protein kinase BTK (Homo sapiens, UniProt Q06187); assay: Inhibition of BTK in human TMD8 cells assessed as reduction in PLCgamma2 phosphorylation at Tyr 1217 residue at 0 to 1000 nM after 4 hrs by Western blot analysis; assay type: cell-based; conditions: dose 0-1000 nM
Chain of Tyrosine-protein kinase BTK (Q06187 whole entry): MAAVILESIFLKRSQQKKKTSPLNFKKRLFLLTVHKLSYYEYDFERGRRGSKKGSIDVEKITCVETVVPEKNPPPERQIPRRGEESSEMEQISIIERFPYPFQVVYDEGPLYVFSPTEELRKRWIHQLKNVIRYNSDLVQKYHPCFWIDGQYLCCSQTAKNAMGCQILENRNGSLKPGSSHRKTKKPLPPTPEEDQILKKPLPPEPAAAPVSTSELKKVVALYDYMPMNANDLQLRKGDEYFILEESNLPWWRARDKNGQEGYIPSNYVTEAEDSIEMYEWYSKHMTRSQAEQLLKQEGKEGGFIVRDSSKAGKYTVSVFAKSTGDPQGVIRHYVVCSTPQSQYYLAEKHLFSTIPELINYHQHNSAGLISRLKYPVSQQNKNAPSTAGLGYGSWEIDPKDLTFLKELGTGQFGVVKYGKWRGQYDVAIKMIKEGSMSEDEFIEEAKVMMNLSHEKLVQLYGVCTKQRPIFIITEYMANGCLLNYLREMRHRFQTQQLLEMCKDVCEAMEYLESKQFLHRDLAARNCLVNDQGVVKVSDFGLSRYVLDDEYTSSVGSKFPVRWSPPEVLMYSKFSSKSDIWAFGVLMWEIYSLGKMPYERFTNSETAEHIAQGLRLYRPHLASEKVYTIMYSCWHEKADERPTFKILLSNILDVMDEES

[18] = Cmax in ICR mouse at 15 mg/kg, po after 24 hrs; assay type: ADME, organism-based; design: route oral, time 24 hrs, dose 15 mg/kg; conditions: in vivo
TMD8 [19] = assay: Antitumor activity against human TMD8 cells xenografted in CB-17 SCID nude mouse assessed as tumor growth inhibition at 3.75 mg/kg, po bid administered for 21 days; assay type: functional; conditions: 504 h, time 21 day, read-out: TGI
Cytochrome P450 2C19 = Cytochrome P450 2C19 (Homo sapiens, UniProt P33261); assay: Inhibition of CYP2C19 in human liver microsomes using S-mephenytoin as substrate incubated for 10 mins in presence of NADPH by LC-MS/MS analysis; assay type: ADME
Chain of Cytochrome P450 2C19 (P33261 whole entry): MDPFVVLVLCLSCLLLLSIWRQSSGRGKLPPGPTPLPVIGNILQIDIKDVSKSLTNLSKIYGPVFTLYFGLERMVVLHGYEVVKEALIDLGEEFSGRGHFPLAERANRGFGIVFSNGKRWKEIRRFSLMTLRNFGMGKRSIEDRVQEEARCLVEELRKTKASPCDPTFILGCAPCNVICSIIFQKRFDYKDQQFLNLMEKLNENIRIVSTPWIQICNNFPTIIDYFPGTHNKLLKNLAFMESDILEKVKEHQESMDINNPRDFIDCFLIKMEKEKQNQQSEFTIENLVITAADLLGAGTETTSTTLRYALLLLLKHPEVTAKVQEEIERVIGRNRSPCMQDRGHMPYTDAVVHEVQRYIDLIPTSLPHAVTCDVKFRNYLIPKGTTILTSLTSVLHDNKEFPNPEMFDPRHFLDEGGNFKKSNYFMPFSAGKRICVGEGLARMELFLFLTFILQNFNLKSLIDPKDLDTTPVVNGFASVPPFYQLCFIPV

[20] = Half life in Sprague-Dawley rat at 5 mg/kg, po measured upto 24 hrs by LC/MS/MS analysis; assay type: ADME, organism-based; conditions: in vivo

## C=CC(=O)N1CCCC[C@H]1c1nc(-c2ccc(C(=O)Nc3cc(C(F)(F)F)ccn3)cc2)c(C(N)=O)n1N
[1]
  concentration at 2 h: 640 nM
Pfeiffer
  IC50: 2.5 µM
[2]
  IC50: 0.847 µM
TMD8 [3]
  Activity: 2.37%
[4]
  Activity: Non-Toxic
TMD8 [5]
  Activity: 19.2%
[6]
  inhibition (INH): Not Active
[7]
  Occ: 95%
Cytochrome P450 2D6
  IC50: > 10 µM
[8]
  Activity: Non-Toxic
SU-DHL-2
  IC50: 5.5 µM
[9]
  Activity: Non-Toxic
TMD8 [10]
  inhibition in vivo at 7.5 mg/kg: 96%
Raji
  IC50: 4.3 µM
[11]
  inhibition: > 80%
TMD8 [12]
  IC50: 0.025 µM
[13]
  half-life: 1.32 h
TMD8 [14]
  Activity: 34.1%
TMD8 [15]
  Activity: 7.94%
Cytochrome P450 3A4
  IC50: > 10 µM
MOLM-13
  IC50: 3.7 µM
[16]
  AUC at 504 h: 1780 ng·h/mL
[17]
  inhibition: Active
[18]
  Cmax: 2380 nM
TMD8 [19]
  inhibition in vivo at 3.75 mg/kg: 81%
Cytochrome P450 2C19
  IC50: > 10 µM
[20]
  half-life: 1.35 h
